For test [1], the target named is T1, S1P1 receptor (Homo sapiens, UniProt P21453). In words: S1P1 β-arrestin recruitment assay in S1P1 overexpressing cell line (DiscoverX), luminescence. It is filed as cell-based. Background: Recruitment of arrestin is a read-out of receptor activation apart from second messengers.
The target of test [2] is T1, S1P1 receptor. In words: S1P1 receptor internalization (endosome formation) assay in S1P1 overexpressing cell line (DiscoverX), luminescence. It is filed as cell-based.
[3] abbreviates: S1P1 overexpressing cell line, β-arrestin recruitment, luminescence, read-out: β-arrestin EC50.
[4] abbreviates: S1P1 overexpressing cell line, endosome formation by internalization, luminescence, read-out: Internalization EC50.

Data on 32 compounds can be found in EP4567034A1 (Korea Institute of Science and Technology, priority 2022, dated 2024).

Structures are written as SMILES.

T1 sequence (P21453 whole entry): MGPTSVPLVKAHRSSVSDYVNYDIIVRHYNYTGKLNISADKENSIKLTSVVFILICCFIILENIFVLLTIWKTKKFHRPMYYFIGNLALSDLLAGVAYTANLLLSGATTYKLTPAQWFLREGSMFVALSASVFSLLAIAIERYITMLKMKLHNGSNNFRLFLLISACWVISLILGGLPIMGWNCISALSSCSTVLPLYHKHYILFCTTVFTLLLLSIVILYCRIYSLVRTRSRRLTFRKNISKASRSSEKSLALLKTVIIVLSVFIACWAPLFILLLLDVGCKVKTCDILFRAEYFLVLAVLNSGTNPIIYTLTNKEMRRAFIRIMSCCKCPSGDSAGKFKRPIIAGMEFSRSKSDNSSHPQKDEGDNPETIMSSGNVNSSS

A word on the EC50: it is the concentration that produces a half-maximal response. With `COC(=O)C1CCN(Cc2ccc(-c3cnc(-c4ccc(OC(C)C)c(Cl)c4)[se]3)cc2)C1` (stereo not shown) [Compound 33, Methyl 1-(4-(2-(3-chloro-4-isopropoxyphenyl)-1,3-selenazole-5-yl)benzyl)pyrrolidine-3-carboxylate], the EC50 at S1P1 receptor [1] is 1.79 nM; on S1P1 receptor [2] it was 11.9 nM.

Take `CC(C)Oc1ccc(-c2ncc(-c3ccc(CN4CC(C(=O)OC(C)(C)C)C4)cc3)[se]2)cc1C#N` [Compound 8, Tert-butyl 1-(4-(2-(3-cyano-4-isopropoxyphenyl)-1,3-selenazole-5-yl)benzyl)azetidine-3-carboxylate]: the EC50 at S1P1 receptor [1] came out at 29.9 nM; on S1P1 receptor [2] it was 33.1 nM.

`CCOC(=O)C1CN(Cc2ccc(-c3cnc(-c4ccc(OC(C)C)cc4)[se]3)cc2)C1` [Compound 20, Ethyl 1-(4-(2-(4-isopropoxyphenyl)-1,3-selenazole-5-yl)benzyl)azetidine-3-carboxylate]: the EC50 on S1P1 receptor [1] was 3.05 nM; on S1P1 receptor [2], 119 nM.

For the compound `COC(=O)C1CN(Cc2ccc(-c3ncc(-c4ccc(OC(C)C)c(Cl)c4)[se]3)cc2)C1` [Compound 41, Methyl 1-(4-(5-(3-chloro-4-isopropoxyphenyl)-1,3-selenazole-2-yl)benzyl)azetidine-3-carboxylate], the EC50 amounted to 0.9 nM at S1P1 receptor [1] and 9.52 nM on S1P1 receptor [2].

Regarding `COC(=O)C1CN(Cc2ccc(-c3cnc(-c4ccc(OC(C)C)c(Cl)c4)[se]3)cc2)C1` [Compound 12, Methyl 1-(4-(2-(3-chloro-4-isopropoxyphenyl)-1,3-selenazole-5-yl)benzyl)azetidine-3-carboxylate], the values for the EC50 at S1P1 receptor [1] and at S1P1 receptor [2] were 1.41 nM and 1.48 nM, respectively.

With `CC(C)Oc1ccc(-c2ncc(-c3ccc(CN4CC(C(=O)O)C4)cc3)[se]2)cc1C#N` [Compound 6], the EC50 was found to be 0.37 nM at S1P1 receptor [1] and 0.065 nM at S1P1 receptor [2].

For the compound `COC(=O)C1CN(Cc2ccc(-c3cnc(-c4ccc(OC(C)C)c(C(F)(F)F)c4)[se]3)cc2)C1` [Compound 9, Methyl 1-(4-(2-(4-isopropoxy-3-(trifluoromethyl)phenyl)-1,3-selenazole-5-yl)benzyl)azetidine-3-carboxylate], the results for the EC50 at S1P1 receptor [1] and at S1P1 receptor [2] were 1.82 nM and 1.59 nM, respectively.

For the compound `COC(=O)C1CCN(Cc2ccc(-c3cnc(-c4ccc(C(C)(C)C)cc4)[se]3)cc2)C1` (stereo not shown) [Compound 30, Methyl 1-(4-(2-(4-tert-butylphenyl)-1,3-selenazole-5-yl)benzyl)pyrrolidine-3-carboxylate], the results for the EC50 at S1P1 receptor [1] and on S1P1 receptor [2] were 8.5 nM and 205 nM, respectively.

As for `COc1ccc(-c2ncc(-c3ccc(CN4CC(C(=O)O)C4)cc3)[se]2)cc1` [Compound 17, 1-(4-(2-(4-methoxyphenyl)-1,3-selenazole-5-yl)benzyl)azetidine-3-carboxylic acid], the EC50 at S1P1 receptor [1] turned out to be 25.9 nM; at S1P1 receptor [2], 81.3 nM.

As to `O=C(O)C1CN(Cc2ccc(-c3cnc(-c4cccnc4)[se]3)cc2)C1` [Compound 29, Sodium 1-(4-(2-(pyridine-3-yl)-1,3-selenazole-5-yl)benzyl)azetidine-3-carboxylate], the values for the EC50 at S1P1 receptor [1] (setting [3]) and at S1P1 receptor [2] (setting [4]) were 635 nM and 379 nM, respectively.

With `CC(C)Oc1ccccc1-c1ncc(-c2ccc(CN3CC(C(=O)O)C3)cc2)[se]1` [Compound 24, 1-(4-(2-(2-isopropoxyphenyl)-1,3-selenazole-5-yl)benzyl)azetidine-3-carboxylic acid], the EC50 on S1P1 receptor [1] (setting [3]) and at S1P1 receptor [2] (setting [4]) was greater than 1000 nM in each case.

As for `CC(C)Oc1ccc(-c2ncc(-c3ccc(CN4CC(C(=O)O)C4)cc3)[se]2)cc1` [Compound 19, 1-(4-(2-(4-isopropoxyphenyl)-1,3-selenazole-5-yl)benzyl)azetidine-3-carboxylic acid], the EC50 came out at 1.14 nM at S1P1 receptor [1] and 0.97 nM on S1P1 receptor [2].

Take `COC(=O)C1CN(Cc2ccc(-c3cnc(-c4ccc(OC)cc4)[se]3)cc2)C1` [Compound 16, Methyl 1-(4-(2-(4-methoxyphenyl)-1,3-selenazole-5-yl)benzyl)azetidine-3-carboxylate]: the EC50 at S1P1 receptor [1] came out at 48.5 nM; at S1P1 receptor [2] it was 139 nM.

In the case of `CCOC(=O)C1CN(Cc2ccc(-c3cnc(-c4ccc(OC(C)C)c(C(F)(F)F)c4)[se]3)cc2)C1` [Compound 11, Ethyl 1-(4-(2-(4-isopropoxy-3-(trifluoromethyl)phenyl)-1,3-selenazole-5-yl)benzyl)azetidine-3-carboxylate], the results for the EC50 at S1P1 receptor [1] and at S1P1 receptor [2] were 1.49 nM and 12.6 nM, respectively.

Turning to `CCOC(=O)CNCc1ccc(-c2cnc(-c3ccc(OC(C)C)c(Cl)c3)[se]2)cc1` [Compound 35, Ethyl 2-(4-(2-(3-chloro-4-isopropoxyphenyl)-1,3-selenazole-5-yl)benzylamino)acetate], the EC50 on S1P1 receptor [1] was determined as 21 nM; at S1P1 receptor [2] it was 11.5 nM.

For the compound `COC(=O)CCNCc1ccc(-c2cnc(-c3ccc(OC(C)C)c(Cl)c3)[se]2)cc1` [Compound 37, Methyl 3-(4-(2-(3-chloro-4-isopropoxyphenyl)-1,3-selenazole-5-yl)benzylamino)propanoate], the EC50 at S1P1 receptor [1] stood at 7.88 nM; on S1P1 receptor [2], 13.5 nM.

Take `COC(=O)C1CN(Cc2ccc(-c3cnc(-c4ccccc4OC(C)C)[se]3)cc2)C1` [Compound 23, Methyl 1-(4-(2-(2-isopropoxyphenyl)-1,3-selenazole-5-yl)benzyl)azetidine-3-carboxylate]: the EC50 on S1P1 receptor [1] (setting [3]) and on S1P1 receptor [2] (setting [4]) was greater than 1000 nM each time.

`CCOC(=O)C1CN(Cc2ccc(-c3cnc(-c4ccc(OC(C)C)c(C#N)c4)[se]3)cc2)C1` [Compound 7, Ethyl 1-(4-(2-(3-cyano-4-isopropoxyphenyl)-1,3-selenazole-5-yl)benzyl)azetidine-3-carboxylate]: the values for the EC50 at S1P1 receptor [1] and at S1P1 receptor [2] were 1.17 nM and 4.33 nM, respectively.

Take `CCOC(=O)C1CN(Cc2ccc(-c3cnc(-c4ccccc4OC(C)C)[se]3)cc2)C1` [Compound 25, Ethyl 1-(4-(2-(2-isopropoxyphenyl)-1,3-selenazole-5-yl)benzyl)azetidine-3-carboxylate]: the 50% effective concentration (EC50) on S1P1 receptor [1] (setting [3]) worked out at 252 nM; at S1P1 receptor [2] (setting [4]) it was 347 nM.

As to `COC(=O)C1CN(Cc2ccc(-c3cnc(-c4cccc(OC(C)C)c4)[se]3)cc2)C1` [Compound 21, Methyl 1-(4-(2-(3-isopropoxyphenyl)-1,3-selenazole-5-yl)benzyl)azetidine-3-carboxylate], the figures for the half-maximal effective concentration (EC50) on S1P1 receptor [1] (setting [3]) and at S1P1 receptor [2] (setting [4]) were 503 nM and 379 nM, respectively.

For the compound `CCOC(=O)C1CN(Cc2ccc(-c3cnc(-c4ccc(C(C)(C)C)cc4)[se]3)cc2)C1` [Compound 3, Ethyl 1-(4-(2-(4-tert-butylphenyl)-1,3-selenazole-5-yl)benzyl)azetidine-3-carboxylate], the EC50 at S1P1 receptor [1] worked out at 23.6 nM; at S1P1 receptor [2], 116 nM.

In the case of `COC(=O)C1CN(Cc2ccc(-c3ncc(-c4ccc(C(C)(C)C)cc4)[se]3)cc2)C1` [Compound 39, Methyl 1-(4-(5-(4-tert-butylphenyl)-1,3-selenazole-2-yl)benzyl)azetidine-3-carboxylate], the figures for the EC50 on S1P1 receptor [1] and on S1P1 receptor [2] were 39.2 nM and 160 nM, respectively.

As for `COC(=O)C1CN(Cc2ccc(-c3cnc(-c4ccc(OC(C)C)cc4)[se]3)cc2)C1` [Compound 18, Methyl 1-(4-(2-(4-isopropoxyphenyl)-1,3-selenazole-5-yl)benzyl)azetidine-3-carboxylate], the figures for the EC50 at S1P1 receptor [1] and at S1P1 receptor [2] were 3.24 nM and 9.26 nM, respectively.

Turning to `COC(=O)C1CN(Cc2ccc(-c3cnc(-c4cccnc4)[se]3)cc2)C1` [Compound 28, Methyl 1-(4-(2-(pyridine-3-yl)-1,3-selenazole-5-yl)benzyl)azetidine-3-carboxylate], the EC50 on S1P1 receptor [1] (setting [3]) and at S1P1 receptor [2] (setting [4]) was greater than 1000 nM in each case.

As for `CCOc1ccc(-c2ncc(-c3ccc(CN4CC(C(=O)OC)C4)cc3)[se]2)cc1Cl` [Compound 14, Methyl 1-(4-(2-(3-chloro-4-ethoxyphenyl)-1,3-selenazole-5-yl)benzyl)azetidine-3-carboxylate], the EC50 on S1P1 receptor [1] is 1.13 nM; at S1P1 receptor [2] it was 4.91 nM.

In the case of `COC(=O)C1CN(Cc2ccc(-c3cnc(-c4ccc(C(C)(C)C)cc4)[se]3)cc2)C1` [Compound 1, Methyl 1-(4-(2-(4-tert-butylphenyl)-1,3-selenazole-5-yl)benzyl)azetidine-3-carboxylate], the figures for the EC50 on S1P1 receptor [1] and at S1P1 receptor [2] were 11.1 nM and 173 nM, respectively.

For the compound `CC(C)Oc1ccc(-c2ncc(-c3ccc(CN4CC(C(=O)O)C4)cc3)[se]2)cc1C(F)(F)F` [Compound 10, 1-(4-(2-(4-isopropoxy-3-(trifluoromethyl)phenyl)-1,3-selenazole-5-yl)benzyl)azetidine-3-carboxylic acid], the values for the EC50 at S1P1 receptor [1] and on S1P1 receptor [2] were 0.45 nM and 0.36 nM, respectively.

As for `COC(=O)C1CCN(Cc2ccc(-c3cnc(-c4ccc(C(C)(C)C)cc4)[se]3)cc2)CC1` [Compound 32, Methyl 1-(4-(2-(4-tert-butylphenyl)-1,3-selenazole-5-yl)benzyl)piperidine-4-carboxylate], the EC50 at S1P1 receptor [1] (setting [3]) worked out at 580 nM; on S1P1 receptor [2] (setting [4]) it was 519 nM.

`O=C(O)C1CN(Cc2ccc(-c3cnc(-c4ccccn4)[se]3)cc2)C1` [Compound 27, Sodium 1-(4-(2-(pyridine-2-yl)-1,3-selenazole-5-yl)benzyl)azetidine-3-carboxylate]: the EC50 on S1P1 receptor [1] (setting [3]) and at S1P1 receptor [2] (setting [4]) was greater than 1000 nM in each case.

In the case of `COC(=O)C1CN(Cc2ccc(-c3cnc(-c4ccccn4)[se]3)cc2)C1` [Compound 26, Methyl 1-(4-(2-(pyridine-2-yl)-1,3-selenazole-5-yl)benzyl)azetidine-3-carboxylate], the EC50 on S1P1 receptor [1] (setting [3]) and on S1P1 receptor [2] (setting [4]) was greater than 1000 nM each time.

Turning to `CC(C)Oc1cccc(-c2ncc(-c3ccc(CN4CC(C(=O)O)C4)cc3)[se]2)c1` [Compound 22, 1-(4-(2-(3-isopropoxyphenyl)-1,3-selenazole-5-yl)benzyl)azetidine-3-carboxylic acid], the EC50 turned out to be 8.59 nM at S1P1 receptor [1] and 97.4 nM on S1P1 receptor [2].

With `CC(C)(C)OC(=O)C1CN(Cc2ccc(-c3cnc(-c4ccc(C(C)(C)C)cc4)[se]3)cc2)C1` [Compound 4, Tert-butyl 1-(4-(2-(4-tert-butylphenyl)-1,3-selenazole-5-yl)benzyl)azetidine-3-carboxylate], the results for the concentration for a half-maximal effect (EC50) on S1P1 receptor [1] and at S1P1 receptor [2] were 70.1 nM and 141 nM, respectively.
